This passage reports inhibition results from US5530126A, “Process for the preparation of substituted 6-(pyrazol-3yl)-1,4-benzoxazin-3-ones” (Monsanto Company, priority 1994, dated 1996).

Assay type in all cases: in vivo
Experiment [1] deals with Annual bluegrass. Kind of experiment: Pre-emergence herbicide test. Particulars: read-out: % plant inhibition (Anbg); for inhibition at 1120 g/ha: 1.12 kg/ha. In short, it runs like this:
(§1)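 Percent growth inhibition rated roughly 11 days (range 10–14) after treatment, with pans held on a greenhouse bench and watered from below. Compound in acetone or water was sprayed onto the seed bed before covering with a layer of untreated topsoil.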

Experiment [2] deals with Barnyardgrass. The experiment in a line: Pre-emergence herbicide test. The following applies: Echinochloa crus-galli, read-out: % plant inhibition (Bygr); for inhibition at 1120 g/ha: 1.12 kg/ha. The method in brief: as §1
The test system of experiment [3] is Cocklebur. Kind of experiment: Pre-emergence herbicide test. Particulars: Xanthium strumarium, read-out: % plant inhibition (Cobu); for inhibition at 1120 g/ha: 1.12 kg/ha. In short, it runs like this:
as §1

Experiment [4] has as its system Downy Brome. The experiment in a line: Pre-emergence herbicide test. Particulars: Bromus tectorum, read-out: % plant inhibition (Dobr); for inhibition at 1120 g/ha: 1.12 kg/ha. The method in brief: as §1
Experiment [5] concerns Indian Mustard. The experiment in a line: Pre-emergence herbicide test. Particulars: Brassica juncea, read-out: % plant inhibition (Inmu); for inhibition at 1120 g/ha: 1.12 kg/ha. In short, it runs like this:
as §1

Experiment [6] deals with Morningglory. Kind of experiment: Pre-emergence herbicide test. Particulars: Ipomoea, read-out: % plant inhibition (Mogl); for inhibition at 1120 g/ha: 1.12 kg/ha. In short, it runs like this:
as §1

For experiment [7], the system named is Seedling johnsongrass. Kind of experiment: Pre-emergence herbicide test. The following applies: Sorghum halepense, read-out: % plant inhibition (Sejg); for inhibition at 1120 g/ha: 1.12 kg/ha. The method in brief: as §1
Experiment [8] deals with Velvetleaf. Kind of experiment: Pre-emergence herbicide test. The following applies: Abutilon theophrasti, read-out: % plant inhibition (Vele); for inhibition at 1120 g/ha: 1.12 kg/ha. The method in brief:
as §1

Experiment [9] relates to Wild buckwheat. The experiment in a line: Pre-emergence herbicide test. Particulars: Fallopia convolvulus, read-out: % plant inhibition (Wibw); for inhibition at 1120 g/ha: 1.12 kg/ha. In short, it runs like this:
as §1

Experiment [10] concerns Yellow nutsedge. The experiment in a line: Pre-emergence herbicide test. Particulars: Cyperus, read-out: % plant inhibition (Yens); for inhibition at 1120 g/ha: 1.12 kg/ha. In short, it runs like this: as §1
For experiment [11], the system named is Annual bluegrass. The experiment in a line: Post-emergence herbicide test. The following applies: read-out: % plant inhibition (Anbg); for inhibition at 1120 g/ha: 1.12 kg/ha. In short, it runs like this:
(§2)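 Seeds or propagules are pressed into compacted topsoil, covered and sub-irrigated in the greenhouse. At two to three weeks the plants are atomizer-sprayed (170.3 kPa, 1870 L/Ha, ~0.4% emulsifier by volume). Percent inhibition relative to control is observed about 10–14 days later.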

For experiment [12], the system named is Barnyardgrass. The experiment in a line: Post-emergence herbicide test. Particulars: Echinochloa crus-galli, read-out: % plant inhibition (Bygr); for inhibition at 1120 g/ha: 1.12 kg/ha. In short, it runs like this:
as §2

Experiment [13] has as its system Cocklebur. The experiment in a line: Post-emergence herbicide test. The following applies: Xanthium strumarium, read-out: % plant inhibition (Cobu); for inhibition at 1120 g/ha: 1.12 kg/ha. The method in brief:
as §2

Experiment [14] concerns Downy Brome. Kind of experiment: Post-emergence herbicide test. Particulars: Bromus tectorum, read-out: % plant inhibition (Dobr); for inhibition at 1120 g/ha: 1.12 kg/ha. The method in brief:
as §2

Experiment [15] concerns Indian Mustard. Kind of experiment: Post-emergence herbicide test. The following applies: Brassica juncea, read-out: % plant inhibition (Inmu); for inhibition at 1120 g/ha: 1.12 kg/ha. In short, it runs like this:
as §2

Experiment [16] concerns Morningglory. The experiment in a line: Post-emergence herbicide test. The following applies: Ipomoea, read-out: % plant inhibition (Mogl); for inhibition at 1120 g/ha: 1.12 kg/ha. In short, it runs like this:
as §2

Experiment [17] relates to Seedling johnsongrass. Kind of experiment: Post-emergence herbicide test. The following applies: Sorghum halepense, read-out: % plant inhibition (Sejg); for inhibition at 1120 g/ha: 1.12 kg/ha. The method in brief: as §2
The subject of experiment [18] is Velvetleaf. The experiment in a line: Post-emergence herbicide test. The following applies: Abutilon theophrasti, read-out: % plant inhibition (Vele); for inhibition at 1120 g/ha: 1.12 kg/ha. The method in brief:
as §2

In experiment [19] the test system is Wild buckwheat. Kind of experiment: Post-emergence herbicide test. Particulars: Fallopia convolvulus, read-out: % plant inhibition (Wibw); for inhibition at 1120 g/ha: 1.12 kg/ha. In short, it runs like this: as §2
Experiment [20] has as its system Yellow nutsedge. The experiment in a line: Post-emergence herbicide test. Particulars: Cyperus, read-out: % plant inhibition (Yens); for inhibition at 1120 g/ha: 1.12 kg/ha. The method in brief:
as §2

With `CCC(C)COC(=O)COc1cc(-c2nn(C)c(C(F)(F)F)c2Cl)c(F)cc1Cl` (centres unmarked) [Compound 287], the inhibition at 1120 g/ha with Annual bluegrass [1] came out at 0%; in the experiment on Barnyardgrass [2] it was 0%; with Cocklebur [3] it was 90%; in the experiment with Downy Brome [4], 0%; with Indian Mustard [5], 60%; with Morningglory [6] it was 70%. For the same molecule, the inhibition at 1120 g/ha came to 0% in the experiment on Seedling johnsongrass [7]; 100% with Velvetleaf [8]; 80% in the experiment on Wild buckwheat [9]; 30% in the experiment on Yellow nutsedge [10]; 0% in the experiment with Annual bluegrass [11]; 70% with Barnyardgrass [12]. Also, the inhibition at 1120 g/ha came to 100% in the experiment on Cocklebur [13]; 10% with Downy Brome [14]; 20% with Indian Mustard [15]; 100% in the experiment on Morningglory [16]; 80% with Seedling johnsongrass [17]; 100% with Velvetleaf [18]. In addition, the inhibition at 1120 g/ha came to 90% with Wild buckwheat [19] and 10% in the experiment with Yellow nutsedge [20].

`CC(C)CCOC(=O)COc1cc(-c2nn(C)c(C(F)(F)F)c2Cl)c(F)cc1Cl` [Compound 288]: the inhibition at 1120 g/ha is 0% with Annual bluegrass [1]; 0% with Barnyardgrass [2]; 30% in the experiment with Cocklebur [3]; 0% in the experiment on Downy Brome [4]; 20% in the experiment with Indian Mustard [5]; 100% with Morningglory [6]. Further, the inhibition at 1120 g/ha was determined as 0% with Seedling johnsongrass [7]; 100% with Velvetleaf [8]; 90% in the experiment on Wild buckwheat [9]; 0% in the experiment with Yellow nutsedge [10]; 0% in the experiment on Annual bluegrass [11]; 50% in the experiment on Barnyardgrass [12]. Moreover, the inhibition at 1120 g/ha with Cocklebur [13] came to 100%; in the experiment on Downy Brome [14], 0%; in the experiment on Indian Mustard [15] it was 90%; in the experiment on Morningglory [16], 100%; in the experiment on Seedling johnsongrass [17] it was 20%; in the experiment on Velvetleaf [18], 100%. Also, the results for the inhibition at 1120 g/ha with Wild buckwheat [19] and with Yellow nutsedge [20] were 100% and 10%, respectively.

On to `Cn1nc(-c2cc(OCC(=O)O)c(Cl)cc2F)c(Cl)c1C(F)(F)F` [Compound 291, (2-Chloro-5-(4-chloro-1-methyl-5-(trifluoromethyl)-1H-pyrazol-3-yl)-4-fluorophenoxy)-acetic acid], for which the inhibition at 1120 g/ha in the experiment with Annual bluegrass [1] amounted to 30%; in the experiment on Barnyardgrass [2], 20%; in the experiment on Cocklebur [3] it was 100%; in the experiment with Downy Brome [4], 20%; in the experiment with Indian Mustard [5], 40%; in the experiment on Morningglory [6], 100%. Besides, the inhibition at 1120 g/ha in the experiment with Seedling johnsongrass [7] worked out at 40%; in the experiment on Velvetleaf [8], 100%; in the experiment with Wild buckwheat [9] it was 100%; with Yellow nutsedge [10], 30%; in the experiment on Annual bluegrass [11], 0%; with Barnyardgrass [12], 20%. Moreover, the inhibition at 1120 g/ha in the experiment on Cocklebur [13] worked out at 100%; with Downy Brome [14], 20%; with Indian Mustard [15] it was 40%; with Morningglory [16], 100%; in the experiment on Seedling johnsongrass [17], 30%; in the experiment on Velvetleaf [18] it was 100%. For the same molecule, the inhibition at 1120 g/ha with Wild buckwheat [19] came to 90%; in the experiment with Yellow nutsedge [20], 30%.

As for `C#CCOc1cc(-c2nn(C)c(C(F)(F)Cl)c2Cl)c(F)cc1Cl` [Compound 303], the inhibition at 11210 g/ha with Annual bluegrass [1] (11.21 kg/ha), in the experiment with Barnyardgrass [2] (11.21 kg/ha), in the experiment with Cocklebur [3] (11.21 kg/ha), in the experiment with Downy Brome [4] (11.21 kg/ha), with Indian Mustard [5] (11.21 kg/ha) and in the experiment on Morningglory [6] (11.21 kg/ha) was 100% in each case. Besides, the inhibition at 11210 g/ha was 100% in the experiment with Seedling johnsongrass [7] (11.21 kg/ha); 100% with Velvetleaf [8] (11.21 kg/ha); 100% with Wild buckwheat [9] (11.21 kg/ha); 0% in the experiment with Yellow nutsedge [10] (11.21 kg/ha); 100% in the experiment on Annual bluegrass [11] (11.21 kg/ha); 100% with Barnyardgrass [12] (11.21 kg/ha). The inhibition at 11210 g/ha with Cocklebur [13] (11.21 kg/ha), in the experiment on Downy Brome [14] (11.21 kg/ha), in the experiment with Indian Mustard [15] (11.21 kg/ha), with Morningglory [16] (11.21 kg/ha), in the experiment on Seedling johnsongrass [17] (11.21 kg/ha) and in the experiment with Velvetleaf [18] (11.21 kg/ha) was 100% throughout. Further, the inhibition at 11210 g/ha in the experiment on Wild buckwheat [19] (11.21 kg/ha) was found to be 100%; with Yellow nutsedge [20] (11.21 kg/ha) it was 70%.

With `COCOc1cc(-c2nn(C)c(C(F)(F)F)c2Cl)c(F)cc1Cl` [Compound 308, 4-Chloro-3-(4-chloro-2-fluoro-5-(methoxy-methoxy)phenyl)-1-methyl-5-(trifluoromethyl)-1H-pyrazole], the inhibition at 1120 g/ha in the experiment with Annual bluegrass [1] came to 100%; in the experiment on Barnyardgrass [2], 100%; with Cocklebur [3] it was 80%; with Downy Brome [4], 100%; in the experiment on Indian Mustard [5] it was 100%; with Morningglory [6], 100%. For the same molecule, the inhibition at 1120 g/ha with Seedling johnsongrass [7] stood at 100%; in the experiment on Velvetleaf [8], 100%; with Wild buckwheat [9], 100%; with Yellow nutsedge [10] it was 40%; with Annual bluegrass [11], 100%; with Barnyardgrass [12] it was 100%. Moreover, the inhibition at 1120 g/ha came out at 90% in the experiment on Cocklebur [13]; 100% in the experiment with Downy Brome [14]; 90% in the experiment with Indian Mustard [15]; 90% in the experiment with Morningglory [16]; 100% in the experiment with Seedling johnsongrass [17]; 100% with Velvetleaf [18]. The results for the inhibition at 1120 g/ha with Wild buckwheat [19] and in the experiment on Yellow nutsedge [20] were 100% and 20%, respectively.

In the case of `Cn1nc(-c2cc(O)c(Cl)cc2F)c(Cl)c1C(F)(F)Cl` [Compound 329], the inhibition at 1120 g/ha with Annual bluegrass [1] worked out at 0%; in the experiment on Barnyardgrass [2] it was 0%; in the experiment on Cocklebur [3] it was 0%; in the experiment with Downy Brome [4], 0%; in the experiment with Indian Mustard [5], 90%; in the experiment on Morningglory [6] it was 70%. For the same molecule, the inhibition at 1120 g/ha with Seedling johnsongrass [7] is 0%; in the experiment with Velvetleaf [8], 100%; in the experiment with Wild buckwheat [9] it was 100%; in the experiment on Yellow nutsedge [10] it was 0%; with Annual bluegrass [11] it was 90%; in the experiment on Barnyardgrass [12], 90%. In addition, the inhibition at 1120 g/ha was 90% in the experiment on Cocklebur [13]; 90% with Downy Brome [14]; 100% with Indian Mustard [15]; 100% in the experiment on Morningglory [16]; 90% in the experiment on Seedling johnsongrass [17]; 100% with Velvetleaf [18]. For the same molecule, the results for the inhibition at 1120 g/ha in the experiment with Wild buckwheat [19] and in the experiment on Yellow nutsedge [20] were 100% and 0%, respectively.

`Cn1nc(-c2cc(/C=C/C(=O)O)c(Cl)cc2F)c(Cl)c1C(F)(F)F` [Compound 351]: the inhibition at 1120 g/ha in the experiment with Annual bluegrass [1] turned out to be 0%; with Barnyardgrass [2], 0%; with Cocklebur [3], 80%; in the experiment with Downy Brome [4] it was 0%; in the experiment with Indian Mustard [5], 100%; in the experiment with Morningglory [6], 80%. In addition, the inhibition at 1120 g/ha was 0% in the experiment on Seedling johnsongrass [7]; 100% with Velvetleaf [8]; 100% with Wild buckwheat [9]; 0% in the experiment with Yellow nutsedge [10]; 30% with Annual bluegrass [11]; 70% in the experiment on Barnyardgrass [12]. Further, the inhibition at 1120 g/ha in the experiment on Cocklebur [13] is 100%; in the experiment on Downy Brome [14], 40%; in the experiment with Indian Mustard [15], 100%; in the experiment on Morningglory [16], 100%; in the experiment on Seedling johnsongrass [17] it was 60%; in the experiment on Velvetleaf [18], 100%. Besides, the results for the inhibition at 1120 g/ha in the experiment with Wild buckwheat [19] and with Yellow nutsedge [20] were 100% and 30%, respectively.

The term inhibition denotes how much of the control response was suppressed.
